Among the test systems are 786-0; ACHN; KM12; M14; Malme-3M; NCI-H226; OVCAR-3; OVCAR-4; RXF 393; SF-295; T47D; TK-10; HT-29; IGROV-1; RPMI-8226; SF-268; SF-539; SNB-75; LOX IMVI.
What all share (assay): NCI-60 cell line screen, 48 h

This note sets out measurements from ChEMBL document CHEMBL1201862, “PubChem BioAssay data set” (2004).

Molecules are shown by their SMILES.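 Method: 48-hour compound exposure of cells in 96-well plates, five concentrations, linear interpolation of endpoints. GI50 = concentration required for 50% inhibition of growth.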 Calls of active or inactive are those of the source. Cut-off read from the data, not from the text of the source: active = GI50 up to about 1.1 µM and inactive = higher. Some results are limits rather than exact numbers.

For the molecule `COCC1OC([P+](c2ccccc2)(c2ccccc2)c2ccccc2)CC(OC)C1OC` (stereo unspecified), the GI50 was 53.2 µM (inactive) with 786-0; 74.6 µM (inactive) in the experiment with ACHN; 34.5 µM (inactive) in the experiment with KM12; 40.8 µM (inactive) in the experiment on M14; 33.9 µM (inactive) with Malme-3M; 33.9 µM (inactive) with NCI-H226. Moreover, the GI50 is 22.7 µM (inactive) with OVCAR-3; 44.1 µM (inactive) with OVCAR-4; 27.2 µM (inactive) in the experiment with RXF 393; 34.2 µM (inactive) with SF-295; 20.6 µM (inactive) in the experiment with T47D; 55.7 µM (inactive) in the experiment with TK-10.

As for `C1=N\CCNCCNCC/N=C\c2ccc(cc2)OCc2cccc(n2)COc2ccc/1cc2`, the GI50 is > 100 µM (inactive) with 786-0; > 100 µM (inactive) in the experiment on ACHN; > 100 µM (inactive) with HT-29; > 100 µM (inactive) in the experiment on IGROV-1; 33.2 µM (inactive) in the experiment with KM12; > 100 µM (inactive) with M14. In addition, the GI50 in the experiment on Malme-3M is > 100 µM (inactive); in the experiment on NCI-H226, > 100 µM (inactive); in the experiment on OVCAR-3, > 100 µM (inactive); with OVCAR-4 it was 68.5 µM (inactive); in the experiment with RPMI-8226, 53.6 µM (inactive); in the experiment on RXF 393, > 100 µM (inactive). Also, the GI50 is 83.6 µM (inactive) in the experiment on SF-268; > 100 µM (inactive) with SF-295; > 100 µM (inactive) in the experiment with SF-539; 47.1 µM (inactive) in the experiment with SNB-75; 53.3 µM (inactive) in the experiment with T47D.

`COC(=O)/C=C\C(C#N)(C#N)/N=C/c1sccc1C`: the GI50 is 1.94 µM (inactive) with 786-0; 1.87 µM (inactive) with ACHN; 1.73 µM (inactive) in the experiment on HT-29; 15 µM (inactive) in the experiment with IGROV-1; 16.2 µM (inactive) in the experiment with KM12; 1.3 µM (inactive) in the experiment on LOX IMVI. The GI50 was 2.28 µM (inactive) with M14; 3.18 µM (inactive) in the experiment on Malme-3M; 3.33 µM (inactive) in the experiment with NCI-H226; 5.05 µM (inactive) in the experiment on OVCAR-3; 4.53 µM (inactive) in the experiment on OVCAR-4; 5.04 µM (inactive) with RPMI-8226. For the same molecule, the GI50 was 2 µM (inactive) in the experiment on RXF 393; 12.3 µM (inactive) with SF-268; 18.2 µM (inactive) in the experiment with SF-295; 14.8 µM (inactive) in the experiment with SNB-75; 2.62 µM (inactive) with T47D; 1.86 µM (inactive) in the experiment with TK-10.

Take `COC(=O)/C(=N/NC(N)=O)C(C(=O)C(=O)Nc1ccc(C)cc1)c1nc2ccc(C(=O)c3ccccc3)cc2nc1O` (stereo unspecified): the GI50 in the experiment on 786-0 is > 100 µM (inactive); in the experiment on ACHN it was > 100 µM (inactive); in the experiment on HT-29 it was 80.9 µM (inactive); in the experiment on IGROV-1 it was 23.7 µM (inactive); in the experiment on KM12 it was 66.7 µM (inactive); with LOX IMVI, > 100 µM (inactive). Moreover, the GI50 in the experiment on M14 was > 100 µM (inactive); in the experiment with Malme-3M, > 100 µM (inactive); in the experiment on NCI-H226, 40.9 µM (inactive); in the experiment on OVCAR-3 it was > 100 µM (inactive); with OVCAR-4, > 100 µM (inactive); in the experiment with RXF 393, 61.9 µM (inactive). For the same molecule, the GI50 in the experiment with SF-268 is > 100 µM (inactive); with SF-295, > 100 µM (inactive); in the experiment on SF-539, 85.1 µM (inactive); with SNB-75, 39.7 µM (inactive); in the experiment with T47D, 41.9 µM (inactive); in the experiment with TK-10, > 100 µM (inactive).

Turning to `CCOC(=O)C(C(=O)OCC)=C1SC(=N\c2ccccc2)/C(=N/c2ccccc2)N1c1ccccc1`, the GI50 in the experiment on 786-0 was > 100 µM (inactive); with ACHN it was 64 µM (inactive); with HT-29, 82.2 µM (inactive); in the experiment with IGROV-1, > 100 µM (inactive); in the experiment on KM12 it was > 100 µM (inactive); in the experiment on Malme-3M it was > 100 µM (inactive). Also, the GI50 was > 100 µM (inactive) in the experiment with NCI-H226; 35.8 µM (inactive) with OVCAR-3; > 100 µM (inactive) with RPMI-8226; 28.2 µM (inactive) with RXF 393; 48.3 µM (inactive) with SF-268; 27 µM (inactive) in the experiment with SF-295. Moreover, the GI50 in the experiment with SF-539, in the experiment with SNB-75 and with T47D was > 100 µM (inactive) each time.

For `FC(F)(F)c1ccc2nc(Sc3ccccn3)cnc2c1`, the GI50 in the experiment with 786-0 was 23.5 µM (inactive); with ACHN, 16.7 µM (inactive); in the experiment with HT-29, 51.8 µM (inactive); with IGROV-1 it was 75.5 µM (inactive); in the experiment with KM12, 88.7 µM (inactive); in the experiment on LOX IMVI it was 40.6 µM (inactive). Moreover, the GI50 was 48 µM (inactive) in the experiment on M14; > 100 µM (inactive) in the experiment on Malme-3M; 26.2 µM (inactive) with NCI-H226; 79.8 µM (inactive) with OVCAR-4; 19.1 µM (inactive) in the experiment with RXF 393; 49.2 µM (inactive) in the experiment on SF-268. The GI50 with SF-295 was 60.1 µM (inactive); in the experiment with SF-539, 16.7 µM (inactive); with SNB-75, 29.5 µM (inactive); with T47D, 28 µM (inactive); with TK-10, 31 µM (inactive).

For the molecule `Cn1cc2c(=O)n3ncn(-c4ccc(Br)cc4)c3nc2n1`, the GI50 in the experiment on 786-0, in the experiment with ACHN, in the experiment on HT-29, with IGROV-1, in the experiment on KM12 and with M14 was > 100 µM (inactive) in each case. Further, the GI50 in the experiment with Malme-3M, with NCI-H226, in the experiment on OVCAR-3, in the experiment with OVCAR-4, with RPMI-8226 and in the experiment on RXF 393 was > 100 µM (inactive) each time. The GI50 with SF-268, in the experiment on SF-295, in the experiment on SF-539, in the experiment on SNB-75, with T47D and in the experiment on TK-10 was > 100 µM (inactive) throughout.

On to `Cc1ccc(-c2sc(-c3ccc(C)cc3)c3c2C2CCC3C2)cc1`, for which the GI50 in the experiment with 786-0, in the experiment with ACHN, in the experiment on HT-29, in the experiment with IGROV-1, in the experiment with KM12 and with LOX IMVI was > 50 µM (inactive) throughout. In addition, the GI50 in the experiment on M14, in the experiment on Malme-3M, in the experiment with NCI-H226, in the experiment with OVCAR-3, in the experiment on OVCAR-4 and with RPMI-8226 was > 50 µM (inactive) each time. In addition, the GI50 with RXF 393, with SF-268, with SF-295, in the experiment with SF-539, in the experiment on T47D and in the experiment on TK-10 was > 50 µM (inactive) in each case.

With `C(=N\NC1=NCCN1)/c1ccc(-c2cn3cc(/C=N/NC4=NCCN4)ccc3n2)cc1`, the GI50 with 786-0 is 19 µM (inactive); in the experiment with ACHN, 34.6 µM (inactive); with HT-29, 11.9 µM (inactive); in the experiment with IGROV-1 it was 15 µM (inactive); in the experiment on KM12, > 44 µM (inactive); with LOX IMVI, 7.74 µM (inactive). Moreover, the GI50 in the experiment with M14 is > 32.7 µM (inactive); in the experiment with Malme-3M, 2.82 µM (inactive); with OVCAR-3 it was > 39.4 µM (inactive); in the experiment with OVCAR-4, 31 µM (inactive); in the experiment with RPMI-8226 it was 16.6 µM (inactive); with RXF 393, > 55.6 µM (inactive). Moreover, the GI50 was 9.79 µM (inactive) in the experiment on SF-268; > 44.8 µM (inactive) with SF-295; > 100 µM (inactive) in the experiment on SF-539; > 100 µM (inactive) in the experiment on SNB-75; > 100 µM (inactive) in the experiment with T47D; 26.6 µM (inactive) in the experiment on TK-10.

In the case of `O=C(Nc1ccc(Cl)cc1)c1cc2c(cc1Cl)Sc1nccn1S2(=O)=O`, the GI50 in the experiment on 786-0 was 29.6 µM (inactive); in the experiment with ACHN, 75.5 µM (inactive); in the experiment on HT-29, > 100 µM (inactive); in the experiment on IGROV-1 it was 60.1 µM (inactive); in the experiment on KM12, > 100 µM (inactive); with LOX IMVI, > 100 µM (inactive). Besides, the GI50 with M14 is > 100 µM (inactive); in the experiment with Malme-3M it was 77.8 µM (inactive); with NCI-H226, 51.3 µM (inactive); in the experiment with OVCAR-3 it was 46.5 µM (inactive); in the experiment on OVCAR-4 it was 37.3 µM (inactive); in the experiment with RXF 393 it was 27.5 µM (inactive). Besides, the GI50 is 27.5 µM (inactive) in the experiment on SF-268; 29.2 µM (inactive) with SF-295; 50.2 µM (inactive) with SF-539; 3.4 µM (inactive) in the experiment with SNB-75; > 100 µM (inactive) with T47D.

As to `CCOC(=O)C(=CN1CCNC1=S)C(=O)OCC`, the GI50 with 786-0, in the experiment on ACHN, in the experiment with HT-29, in the experiment with IGROV-1, with LOX IMVI and in the experiment on M14 was > 100 µM (inactive) each time. In addition, the GI50 in the experiment on Malme-3M is > 100 µM (inactive); in the experiment with NCI-H226, > 100 µM (inactive); in the experiment on OVCAR-3, 0.288 µM (active); in the experiment on OVCAR-4 it was > 100 µM (inactive); with RPMI-8226, > 100 µM (inactive); in the experiment with RXF 393, > 100 µM (inactive). In addition, the GI50 in the experiment on SF-295, in the experiment on SF-539 and in the experiment on T47D was > 100 µM (inactive) in each case.

On to `CC(=O)Oc1ccc(/C=C/C(=O)O[C@H]2CCCC[C@@H]2OC(=O)/C=C/c2ccc(OC(C)=O)c(OC(C)=O)c2)cc1OC(C)=O`, for which the GI50 in the experiment with 786-0 was 4.57 µM (inactive); in the experiment with ACHN, 5.83 µM (inactive); in the experiment with HT-29, 5.47 µM (inactive); in the experiment with IGROV-1, 4.09 µM (inactive); in the experiment on KM12, 8.75 µM (inactive); in the experiment on LOX IMVI, 2.49 µM (inactive). In addition, the GI50 in the experiment on M14 is 7.14 µM (inactive); with Malme-3M, 15.6 µM (inactive); in the experiment with OVCAR-3, 4.74 µM (inactive); in the experiment with OVCAR-4 it was 7.08 µM (inactive); with RPMI-8226 it was 4.07 µM (inactive); with RXF 393, 11.1 µM (inactive). The GI50 in the experiment with SF-268 was 8.17 µM (inactive); with SF-295, 4.37 µM (inactive); in the experiment with SF-539 it was 6.38 µM (inactive); in the experiment on SNB-75, 9.46 µM (inactive); with T47D, 11.5 µM (inactive); in the experiment with TK-10, 6.93 µM (inactive).
